As a reminder, the EC50 is the concentration needed to bring the measured effect to its halfway point. A word on the inhibition: it is how much of the control response was suppressed.

The results in this text go back to patent US8765946B2, “Methods of preparing and using quinazoline and quinoline derivatives” (priority 2006, dated 2014).

Common to all, as to format: cell-based
Assay [1] has as its target T1, A431 cells EGFR-TK phosphorylation stimulated by EGF (Homo sapiens, UniProt P00533).
T1 construct: against A431 cells EGFR-TK; endogenous in cells; host or cells: A431 cells
As to the kind of experiment: Inhibition of cellular EGFR-TK phosphorylation stimulated by EGF in A431 cells. To be noted: for EC50: A431 cells EGFR-TK phosphorylation stimulated by EGF (Table 4); for inhibition at 3 µM: A-431, concentration of 3 μM, A431 cells, EGF stimulated, one-time measurement at a single concentration (preliminary selection), NA = No activity, read-out: Inhibition Percent (%). The protocol: Inhibition Experiment of Cellular Epidermal Growth Factor Receptor Tyrosine Kinase
1) A431 cells were cultured in a medium which was prepared by adding 10% FCS into another medium comprising 50% DMEM and 50% F12.
2) A431 cells grown in six-well plates were cultured in a serum-free medium for 24 hours. During the 24 hour period the medium was replenished once after 12 hours.
3) A solution containing a compound to be assessed was added the A431 cells and the cells were cultured for 2 hours, supplemented twice by a medium free of the compound, and then EGF (100 ng/well) was added, and cultured for 5 minutes.
4) A431 cell homogenate was prepared by Laemili buffer which comprised 2% sodium dodecyl sulfonate (SDS), 5% 2-mercaptoethanol, 10% glycerol and 5 mM Tris (pH 6.8).
5) The A431 cell homogenate was heated for 5 minutes at 100° C.
6) Proteins in the A431 cell homogenates were separated by PAGE and transferred onto a nitrocellulose membrane, and an infrared reading was obtained.

The subject of assay [2] is A431 cells. As to the kind of experiment: Cell growth inhibition assay (MTS assay), A431. The settings on record: Homo sapiens, A-431; A431 cells; MTS, 48 hours; read-out: Growth inhibition activity EC50. (In general: Formazan colour is commonly taken as a measure of viable cells.)
Assay [3] concerns A431 cells. As to the kind of experiment: A431 cell growth inhibition assay (MTT assay). To be noted: Homo sapiens, A-431, concentration of 3 μM, 72 hours, read-out: Inhibition Percent (%). The protocol: A431 Cell Growth Inhibition Assay (MTT Assay)
A431, an epidermoid carcinoma cell line; The Cell Bank, Committee on Type Culture Collection Chinese Academy of Science, Shanghai.
Mix prepared medium DMEM and F12 in the proportion of 1:1, then add FBS to a final concentration of 10%.
Dissolved the dried compound sample with 100% DMSO to 2 mM. Then diluted the dissolved compound to 20 μM with cell complete growth medium.
Prior to the assay, cultured the A431 to logarithmic phase, and then removed medium from cell monolayers and wash the cells once with sterilized PBS. Aspriated the PBS and added 2 mL trypsin solution to cover the cell growth surface, removed 1 mL trypsin solution after soaking about 1 minute. Transferred the cell-culture plate to CO2 incubator; incubated at 37° C. for 8 minutes to allow cells to dissociate. After the cells detached, added 4 mL complete growth medium containing FBS with pipette to disperse them off and mixed gently to obtain a homogeneous cell suspension. Aspirated some of the cell suspension to a sterilized polypropylene tube, and determined the cell concentration by counting in a hematocytometer chamber under a microscope. Adjusted the cell concentration with growth medium to obtain 2.5×10^4 cells per milliliter.
Added 100 μL adjusted cell suspension to the 96-well cell-culture plate and occasionally mixed the cell suspension during the seeding process. After seeding cells, incubated the plate at 37° C. overnight with 5% CO2 in the CO2 incubator for cell attachment.
After the cell attachment, added 100 μL prepared compound solutions to the corresponding wells (add PBS to the ambient wells of the plate). The final compound concentrations ranged from 10 μM to 1.52 nM. Incubated the plate at 37° C. with 5% CO2 for 72 hours in the CO2 incubator.
After the exposure to the compound, removed the cell culture supernatant. Then added 100 μL 0.5 mg/mL MTT solution which dissolved in the growth medium without FBS. Incubated the plate at 37° C. with 5% CO2 for another 4 hours to allow the MTT reaction to proceed.
After the MTT reaction, discarded the MTT reaction solution. Added 100 μL DMSO to each well, and the plate was agitated on the plate shaker for several minutes to dissolve the formazan. Then, detected the absorbance at 490 nm using microplate reader.

The next assay deals with BT474 cells. As to the kind of experiment: BT-474 cell growth inhibition assay (SRB assay). To be noted: Homo sapiens, concentration of 3 μM, 72 h, read-out: Inhibition Percent (%). The protocol:
BT-474 Cell Growth Inhibition Assay (SRB Assay)
BT-474 human breast cancer cell lines were kindly provided by Dr. Changnian Liu, Pharmaron Beijing Co., Ltd.
BT-474 cells were cultured in 37° C., 5% CO2, saturated humidity until logarithmic phase. Discarded culture medium, washed cells once by PBS. Added 1 ml Trypsin/EDTA solution, stood at 37° C. for 5 min, allowed the cells to detach. Added culture medium, adjusted the cells density to 1×10^5 cells/ml.
Day 0, added 100 μl/well cells suspension to 96-well cell culture plates. Incubated overnight to let the cells attach completely.
Day 1, compounds (2 mM in DMSO as stock solution) was diluted to 20 μM in EMEM. Then a fourfold serial dilution was made. These diluted compounds were made as 10× reaction solutions, and the concentration of DMSO was kept at 1%.
Added 80 μl culture medium and 20 μl 10× compound reaction solution to the testing wells, or vehicle control to the control wells. Co-incubated cells with compounds for another 72 h.
Day 3, fixed cellular protein by the addition of 100 μl/well of 10% TCA (diluting from 50% TCA) at 4° C. for 1 h. Rinsed TCA using plate washer, and washed five times using distilled water. Removed the residual wash solution with a piece of absorbent paper. Added 100 μl/well 0.4% SRB solution, allowed a 15-30 min staining period. Removed the SRB, and washed the culture plates five times using 1% acetic acid. Removed the residual wash solution with a piece of absorbent paper. Air-dried the culture plates, dissolved the protein-bound dye with 100 μl/well of 10 mM Tris base solution. Shook the plates until the dye was dissolved completely.
For orientation: Sulforhodamine B stains cellular protein and so reports cell mass.

T1 sequence (P00533 25-1210): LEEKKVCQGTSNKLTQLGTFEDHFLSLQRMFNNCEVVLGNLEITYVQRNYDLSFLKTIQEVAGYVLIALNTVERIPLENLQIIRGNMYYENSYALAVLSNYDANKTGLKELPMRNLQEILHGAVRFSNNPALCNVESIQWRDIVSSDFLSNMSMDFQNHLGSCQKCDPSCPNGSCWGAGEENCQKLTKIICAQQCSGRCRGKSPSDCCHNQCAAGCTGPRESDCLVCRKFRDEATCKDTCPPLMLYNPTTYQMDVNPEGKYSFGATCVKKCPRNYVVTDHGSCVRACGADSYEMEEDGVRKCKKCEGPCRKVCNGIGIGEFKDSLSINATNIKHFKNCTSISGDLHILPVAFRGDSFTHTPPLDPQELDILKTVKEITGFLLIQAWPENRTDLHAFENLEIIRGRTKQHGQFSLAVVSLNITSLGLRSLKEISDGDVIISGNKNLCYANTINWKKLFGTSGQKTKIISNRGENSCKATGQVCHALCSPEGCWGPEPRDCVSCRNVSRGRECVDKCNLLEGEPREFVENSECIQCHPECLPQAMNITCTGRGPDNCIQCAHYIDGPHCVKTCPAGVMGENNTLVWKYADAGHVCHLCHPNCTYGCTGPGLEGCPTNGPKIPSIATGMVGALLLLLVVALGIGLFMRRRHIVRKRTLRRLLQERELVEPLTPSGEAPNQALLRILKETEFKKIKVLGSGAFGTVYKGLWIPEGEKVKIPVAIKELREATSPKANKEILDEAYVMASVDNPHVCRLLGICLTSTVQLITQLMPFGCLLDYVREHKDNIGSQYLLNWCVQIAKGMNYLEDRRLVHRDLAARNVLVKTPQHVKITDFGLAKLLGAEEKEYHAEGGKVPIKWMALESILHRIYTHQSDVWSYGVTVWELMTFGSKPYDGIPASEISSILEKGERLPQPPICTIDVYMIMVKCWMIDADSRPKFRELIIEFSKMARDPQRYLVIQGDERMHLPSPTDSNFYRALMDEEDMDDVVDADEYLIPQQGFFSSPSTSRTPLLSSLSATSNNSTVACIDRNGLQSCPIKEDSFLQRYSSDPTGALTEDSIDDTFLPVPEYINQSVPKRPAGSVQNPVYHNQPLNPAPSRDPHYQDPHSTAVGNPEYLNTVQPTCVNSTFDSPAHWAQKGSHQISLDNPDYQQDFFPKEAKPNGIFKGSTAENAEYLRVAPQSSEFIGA

On to `C#Cc1cccc(Nc2ncnc3ccc(NC(=O)C=C4CCNCC4)cc23)c1` [Example 3, N-(4-(3-ethynylphenylamino)quinazolin-6-yl)-2-(piperidin-4-ylidene)acetamide], for which, in assay [1], the midpoint of the response, the EC50, lay at 0.15 µM and the inhibition at 3 µM is 85%. In addition, the 50% effective concentration (EC50) in the assay with A431 cells [2] was 2 µM.
The corresponding values for `C#Cc1cccc(Nc2ncnc3ccc(NC(=O)C=C4CCN(C)CC4)cc23)c1` [Example 4, N-(4-(3-ethynylphenylamino)quinazolin-6-yl)-2-(1-methylpiperidin-4-ylidene)acetamide] are 0.58 µM, 78% and 1.8 µM.
The corresponding values for `C#Cc1cccc(Nc2ncnc3ccc(NC(=O)C=C4CCN(CCOC)CC4)cc23)c1` [Example 7, N-(4-(3-ethynylphenylamino)quinazolin-6-yl)-2-(1-(2-methoxyethyl)piperidin-4-ylidene)acetamide] are 0.4 µM, 65% and 5 µM.
`C[C@H](Nc1ncnc2ccc(NC(=O)C=C3CCNCC3)cc12)c1ccccc1` [Example 34, N-(4-((S)-1-phenylethylamino)quinazolin-6-yl)-2-(piperidin-4-ylidene)acetamide]: in assay [1], the concentration for a half-maximal effect (EC50) came to 0.76 µM and the inhibition at 3 µM came out at 68%. Moreover, the EC50 with A431 cells [2] came out at 13 µM.
The corresponding values for `O=C(C=C1CCNCC1)Nc1ccc2ncnc(Nc3cccc(Cl)c3)c2c1` [Example 36, N-(4-(3-chlorophenylamino)quinazolin-6-yl)-2-(piperidin-4-ylidene)acetamide] are 0.98 µM, 57% and 30 µM.
As to `O=C(C=C1CCNCC1)Nc1ccc2ncnc(Nc3ccc4[nH]ccc4c3)c2c1` [Example 41, N-(4-(1H-indol-5-ylamino)quinazolin-6-yl)-2-(piperidin-4-ylidene)acetamide], in assay [1], the inhibition at 3 µM amounted to 71%. Also, in the assay on A431 cells [2], the EC50 turned out to be 1.5 µM.
The corresponding values for `C#Cc1cccc(Nc2ncnc3cc(OCCCOC)c(NC(=O)C=C4CCNCC4)cc23)c1` [Example 50, N-(4-(3-ethynylphenylamino)-7-(3-methoxypropoxy)quinazolin-6-yl)-2-(piperidin-4-ylidene)acetamide] are 95% and 0.15 µM.
As for `CCOc1cc2ncc(C#N)c(Nc3ccc(OCc4cccc(F)c4)c(Cl)c3)c2cc1NC(=O)C=C1CCN(C)CC1` [Example 162, N-(4-(4-(3-fluorobenzyloxy)-3-chlorophenylamino)-3-cyano-7-ethoxyquinolin-6-yl)-2-(1-methylpiperidin-4-ylidene)acetamide], the values for the inhibition at 3 µM in the assay with A431 cells [3] and in the assay with BT474 cells were 41% and 91%, respectively.
`CCOc1cc2ncc(C#N)c(Nc3ccc(OCc4cccc(F)c4)c(Cl)c3)c2cc1NC(=O)C=C1CCN(CCOC)CC1` [Example 163, N-(4-(4-(3-fluorobenzyloxy)-3-chlorophenylamino)-3-cyano-7-ethoxyquinolin-6-yl)-2-(1-(2-methoxyethyl)piperidin-4-ylidene)acetamide]: the values for the inhibition at 3 µM in the assay on A431 cells [3] and in the assay on BT474 cells were 40% and 87%, respectively.
The corresponding values for `COCCOc1cc2ncc(C#N)c(Nc3ccc(OCc4ccccn4)c(Cl)c3)c2cc1NC(=O)C=C1CCNCC1` [Example 165, N-(4-(3-chloro-4-(pyridin-2-ylmethoxy)phenylamino)-3-cyano-7-(2-methoxyethoxy)quinolin-6-yl)-2-(piperidin-4-ylidene)acetamide] are 53% and 87%.
The corresponding values for `N#Cc1cnc2ccc(NC(=O)C=C3CCNCC3)cc2c1Nc1ccc(OCc2ccccn2)c(Cl)c1` [Example 166, N-(4-(3-chloro-4-(pyridin-2-ylmethoxy)phenylamino)-3-cyanoquinolin-6-yl)-2-(ppiperidin-4-ylidene)acetamide] are 49% and 85%.
Regarding `COCCOc1cc2ncc(C#N)c(Nc3ccc(OCc4cccc(F)c4)c(Cl)c3)c2cc1NC(=O)C=C1CCNCC1` [Example 167, N-(4-(4-(3-fluorobenzyloxy)-3-chlorophenylamino)-3-cyano-7-(2-methoxyethoxy)quinolin-6-yl)-2-(piperidin-4-ylidene)acetamide], the inhibition at 3 µM with A431 cells [3] was 45%; with BT474 cells, 84%.
The corresponding values for `N#Cc1cnc2ccc(NC(=O)C=C3CCNCC3)cc2c1Nc1ccc(OCc2cccc(F)c2)c(Cl)c1` [Example 168, N-(4-(4-(3-fluorobenzyloxy)-3-chlorophenylamino)-3-cyanoquinolin-6-yl)-2-(piperidin-4-ylidene)acetamide] are 41% and 89%.
For `C#Cc1cccc(Nc2c(C#N)cnc3cc(OCCOC)c(NC(=O)C=C4CCNCC4)cc23)c1` [Example 169, N-(3-cyano-4-(3-ethynylphenylamino)-7-(2-methoxyethoxy)quinolin-6-yl)-2-(piperidin-4-ylidene)acetamide], the figures for the inhibition at 3 µM in the assay with A431 cells [3] and with BT474 cells were 92% and 58%, respectively.
The corresponding values for `C#Cc1cccc(Nc2c(C#N)cnc3ccc(NC(=O)C=C4CCNCC4)cc23)c1` [Example 170, N-(3-cyano-4-(3-ethynylphenylamino)quinolin-6-yl)-2-(piperidin-4-ylidene)acetamide] are 88% and 56%.
The corresponding values for `COCCOc1cc2ncc(C#N)c(Nc3cccc(Br)c3)c2cc1NC(=O)C=C1CCNCC1` [Example 171, N-(4-(3-bromophenylamino)-3-cyano-7-(2-methoxyethoxy)quinolin-6-yl)-2-(piperidin-4-ylidene)acetamide] are 86% and 60%.
Regarding `N#Cc1cnc2ccc(NC(=O)C=C3CCNCC3)cc2c1Nc1cccc(Br)c1` [Example 172, N-(4-(3-bromophenylamino)-3-cyanoquinolin-6-yl)-2-(piperidin-4-ylidene)acetamide], the inhibition at 3 µM in the assay on A431 cells [3] was determined as 84%; with BT474 cells, 61%.
The corresponding values for `N#Cc1cnc2ccc(NC(=O)C=C3CCNCC3)cc2c1Nc1ccc(F)c(Cl)c1` [Example 173, N-(4-(3-chloro-4-fluorophenylamino)-3-cyanoquinolin-6-yl)-2-(piperidin-4-ylidene)acetamide] are 87% and 44%.
